Assay results taken from patent US20080318961A1, “Drugs comprising chymase inhibitors and ACE inhibitors as effective ingredients” (Teijin, priority 2001, published 2008).
Structures can show the parent of a compound that is named as a salt. Where two headings read alike, the source gives them in different places.

Experiments:
[1] = test system: hamster myocardial infarction models; details: Life Sci. 2002, Vol. 71, p. 437; cited from earlier work
human mast cell chymase = target: T1, human mast cell chymase (Homo sapiens, UniProt P23946); experiment: Recombinant human mast cell chymase enzymatic activity inhibition; assay type: biochemical
T1 construct: made in house; host or cells: insect cells (Th5), recombinant baculovirus
T1 sequence (P23946 22-247): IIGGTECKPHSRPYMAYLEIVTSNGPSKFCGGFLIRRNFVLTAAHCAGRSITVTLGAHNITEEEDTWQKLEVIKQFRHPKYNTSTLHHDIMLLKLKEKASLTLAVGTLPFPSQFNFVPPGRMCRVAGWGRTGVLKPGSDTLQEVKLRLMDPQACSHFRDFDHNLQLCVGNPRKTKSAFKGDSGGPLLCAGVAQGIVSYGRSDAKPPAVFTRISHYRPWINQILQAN
Description: Specifically, Heparin Sepharose (Pharmacia) was used for purification from a culture supernatant of insect cells (Th5) infected with recombinant baculovirus containing cDNA coding for human mast cell chymase.
The time-related change in absorbance at 405 nm was measured to determine the inhibiting activity.

hamster chymase = experiment: Accelerated vascular permeation model by intradermal injection of hamster chymase; assay type: in vivo, Syrian hamsters; details: 0.1% (w/w) in feed for 5 days; Evans Blue, 30 minutes after intradermal hamster chymase
Description: Compound No. 33 was mixed with powder feed to a content of 0.1% (w/w) to prepare a feed which was given to hamsters (Syrian hamsters, male, 7-week-old) for 5 days. Under ether anesthesia, the hamster backs were shaved and the hamster chymase was intradermally injected (hamster chymase: 1, 0.3, 0.1 μg/site; vehicle: 0.15 M NaCl, 0.1 mg/ml BSA, 10 mM Pi-Na, pH 7.0). Evans Blue (1% (w/v) solution, 5 ml/kg) was intravenously administered just prior to the intradermal injection, and the blue spots produced by chymase intradermal injection were quantified. Specifically, the hamsters were bled to death from the abdominal aorta 30 minutes after intradermal injection, and the skin was sampled using the blueing spots as an index. The sampled skin was placed in a glass test tube, the dye was extracted with 2 ml of EB extract (acetone:0.3% Na2SO4=7:3), and the dye leakage was measured by colorimetry using a spectrophotometer (620 nm).

Human tryptase = Human tryptase (Homo sapiens, UniProt Q15661); experiment: Enzyme selectivity: human tryptase inhibition; assay type: biochemical; details: Compound No. 33; read-out: Inhibition constant, Human tryptase
Chymotrypsin = Chymotrypsin (Bos taurus, UniProt P00766); experiment: Enzyme selectivity: chymotrypsin inhibition; assay type: biochemical; details: Compound No. 33; read-out: Inhibition constant, Chymotrypsin
Trypsin = target: T2, Trypsin (Bos taurus, UniProt P00760); experiment: Enzyme selectivity: trypsin inhibition; assay type: biochemical; details: Compound No. 33; read-out: Inhibition constant, Trypsin
T2 construct: gene PRSS1
T2 sequence (P00760 24-246): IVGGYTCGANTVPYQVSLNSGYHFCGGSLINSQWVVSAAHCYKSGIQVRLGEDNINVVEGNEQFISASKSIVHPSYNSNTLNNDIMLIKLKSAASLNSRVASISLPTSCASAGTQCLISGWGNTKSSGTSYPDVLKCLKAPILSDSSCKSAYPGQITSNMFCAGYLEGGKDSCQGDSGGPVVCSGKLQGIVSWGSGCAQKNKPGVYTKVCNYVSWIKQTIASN

[2] = Blood drug concentrations upon oral administration to hamsters; assay type: in vivo; details: hamster, serum, 0.1% (w/w) in feed for 5 days, mean±S.E., N=4, read-out: hamster serum concentration of the parent drug
Description: The chymase inhibitor designated as Compound No. 33 was mixed with MF powder feed to a content of 0.1% (w/w) to prepare a hamster feed which was given to hamsters for 5 days. Blood was sampled from the abdominal aorta under ether anesthesia, the serum was extracted, and the serum compound concentrations were measured by high-performance liquid chromatography.

Mouse chymase = experiment: Enzyme selectivity: mouse chymase inhibition; assay type: biochemical; details: Compound No. 33; read-out: Inhibition constant, Mouse chymase
hamster chymase 1 = hamster chymase 1 (Mesocricetus auratus, UniProt O08732); experiment: Chymase-inhibiting activity using hamster chymase; assay type: biochemical; details: Compound No. 33; read-out: Inhibition constant, Hamster chymase
Description: After adding 2 μl of a DMSO solution containing a compound of the invention to 50 μl of Buffer A (0.5-3.0 M NaCl, 50 mM Tris-HCl, pH 8.0) containing 1-5 ng of the active form human mast cell chymase obtained in Example 1, there was added 50 μl of Buffer A containing 0.5 mM succinyl-alanyl-histidyl-prolyl-phenylalanylparanitroanilide (Bachem) as a substrate, and reaction was conducted at room temperature for 5 minutes. The time-related change in absorbance at 405 nm was measured to determine the inhibiting activity.
Hamster chymase was obtained from a crude product extracted from hamster tongue tissue with an acidic buffer solution and subsequently purified with a Phenyl-Sepharose column (elution: 0.15 M NaCl, 50 mM sodium phosphate, pH 6.5, 50% ethylene glycol) and a Heparin-Cellulofine column (elution: 0.5-2.0 M NaCl). The protein was identified as hamster chymase 1 based on the N-terminal amino acid sequence, and activity inhibition was measured by the same method as for the human chymase.

[3] = test system: Human chymase-overexpressing mice (TGM); experiment: Angiotensin-elicited blood pressure increase model using chymase-overexpressing mice; assay type: in vivo; details: continuous angiotensin I infusion; for suppression of vasopressor effect (blood pressure): compared to control group, combination normal from 10th day, P<0.05
Description: Human chymase-overexpressing mice (hereinafter abbreviated as “TGM”) created by introduction of the human chymase gene with an angiotensin II-producing function were used as the model animals. Specifically, 8- to 10-week-old TGM mice were used, and angiotensin I was continuously infused with a microosmostic pump embedded under the mouse skin (70 μg/kg/min) to create continuous hypertensive mouse models. The continuous infusion of angiotensin I was confirmed to elicit a vasopressor response of about 30 mmHg in the TGM (n=6) with respect to the wild type (n=8), while depressor action was examined in groups administered a chymase inhibitor (Compound No. 33, 0.1% diet, n=7), an ACE inhibitor (temocapril hydrochloride, 2.0 mg/kg/day, n=6), an angiotensin receptor blocker (ARB) (Valsartan, 14 mg/kg/day, n=7) and a chymase inhibitor and ACE inhibitor simultaneously (Compound No. 33, 0.1% diet, and temocapril hydrochloride, 2.0 mg/kg/day, n=6). The letter “n” indicates the number of individuals. […] […].

[4] = test system: canine myocardial infarction models; details: 75th Annual Meeting of the Japanese Pharmacological Society; cited from earlier work
chymase = details: WO00/51640, J. Med. Chem., 2001, Vol. 44, p. 1286; cited from earlier work
[5] = stated in parentheses for Compounds A and B, read-out: human chymase IC50 (reference compounds)
[6] = recombinant active form human mast cell chymase, room temperature 5 minutes, absorbance 405 nm, read-out: IC50, human mast cell chymase inhibiting activity

Sequence of Human tryptase (Q15661 31-275): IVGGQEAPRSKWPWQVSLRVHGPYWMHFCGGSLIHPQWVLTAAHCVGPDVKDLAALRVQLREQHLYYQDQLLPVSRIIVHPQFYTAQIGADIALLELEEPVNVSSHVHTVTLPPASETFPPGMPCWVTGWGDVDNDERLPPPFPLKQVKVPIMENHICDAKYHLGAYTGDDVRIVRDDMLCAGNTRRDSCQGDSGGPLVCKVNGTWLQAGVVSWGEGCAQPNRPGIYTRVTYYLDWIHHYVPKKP
Sequence of hamster chymase 1 (O08732 entry or part of it): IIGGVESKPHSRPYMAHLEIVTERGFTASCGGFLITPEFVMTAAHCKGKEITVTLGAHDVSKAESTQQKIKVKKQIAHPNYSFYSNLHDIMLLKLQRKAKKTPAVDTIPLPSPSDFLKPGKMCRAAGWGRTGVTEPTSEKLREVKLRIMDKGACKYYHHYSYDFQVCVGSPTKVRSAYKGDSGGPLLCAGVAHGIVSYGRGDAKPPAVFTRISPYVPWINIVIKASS

| IC50 (human mast cell chymase; [6]) [nM] | Structure (SMILES) | other results |
| --- | --- | --- |
|  | CCOc1ccccc1CC1C(=O)N(C(=O)NC(c2ccc(C)cc2)c2ccc(C)cc2)C1Oc1ccc(C(=O)O)cc1 (stereo not shown) [4-[1-{[bis(4-methylphenyl)methyl]carbamoyl}-3-(2-ethoxybenzyl)-4-oxoazetidin-2-yloyl]benzoic acid] | effect when administered alone to hamster myocardial infarction models [1]: exhibit an effect |
|  | O=C1CN(c2ccc(Cl)cc2)C(=O)N1S(=O)(=O)c1ccc(Cl)cc1 [Compound A, reference compound] | IC50 (human mast cell chymase; [5]): 9 nM; dye leakage (accelerated vascular permeation) (hamster chymase): no clear suppressing action |
|  | [O-][S+](Cc1ccc(Cl)cc1)c1nnc(OCc2ccc(Cl)cc2)c2nccn12 (stereo not shown) [Compound B, reference compound] | IC50 (human mast cell chymase; [5]): 30 nM; dye leakage (accelerated vascular permeation) (hamster chymase): no clear suppressing action |
| 10 to 100 | O=C(O)CCCSc1nc2ccccc2n1Cc1cccc2ccccc12 [Compound No. 33] | Ki (Human tryptase): > 10000 nM; Ki (Chymotrypsin): > 10000 nM; Ki (Trypsin): > 10000 nM; concentration at 5 days [2]: 7.89 ± 1.09 µM; Ki (Mouse chymase): 73.4 ± 24.2 nM; Ki (hamster chymase 1): 30.6 ± 3.8 nM; Ki (human mast cell chymase; Compound No. 33, read-out: Inhibition constant, Human chymase): 6.2 ± 2.2 nM; suppression of cardiac hypertrophy [3]: no notable suppression; suppression of vasopressor effect (blood pressure) [3]: no notable suppression; dye leakage (accelerated vascular permeation) (hamster chymase): decrease in dye leakage |
|  | CCCCC(=O)N(Cc1ccc(-c2ccccc2-c2nnn[nH]2)cc1)[C@H](C(=O)O)C(C)C [Valsartan] | suppression of cardiac hypertrophy [3]: no notable suppression |
| 10 to 100 | Cc1ccc2c(c1)c(Cn1c(SCCCC(=O)O)nc3ccccc31)cn2C [compound 6] |  |
| 10 to 100 | Cn1cc(Cn2c(SCCCC(=O)O)nc3ccccc32)c2c(Cl)cccc21 [compound 9] |  |
| 10 to 100 | Cn1cc(Cn2c(SCCCC(=O)O)nc3ccccc32)c2c(F)cccc21 [compound 10] |  |
| 10 to 100 | O=C(O)CCCSc1nc2ccccc2n1Cc1csc2ccccc12 [compound 20] |  |
| 10 to 100 | O=C(O)CCCSc1nc2ccccc2n1Cc1csc2ccc(Cl)cc12 [compound 22] |  |
| 10 to 100 | Cc1ccc2scc(Cn3c(SCCCC(=O)O)nc4ccccc43)c2c1 [compound 24] |  |
| 10 to 100 | O=C(O)CCCSc1nc2ccccc2n1Cc1csc2cccc(Cl)c12 [compound 27] |  |
| 10 to 100 | Cc1cc(C)c2c(Cn3c(SCCCC(=O)O)nc4ccccc43)csc2c1 [compound 31] |  |
| 10 to 100 | COc1ccc2c(c1)nc(SCCCC(=O)O)n2Cc1cn(C)c2cccc(Cl)c12 [compound 45] |  |
| 10 to 100 | COc1ccc2c(c1)nc(SCCCC(=O)O)n2Cc1csc2ccccc12 [compound 56] |  |
| 10 to 100 | COc1ccc2c(c1)nc(SCCCC(=O)O)n2Cc1csc2cccc(C)c12 [compound 62] |  |
| 10 to 100 | N#Cc1ccc2c(c1)nc(SCCCC(=O)O)n2Cc1csc2ccccc12 [compound 92] |  |
| 10 to 100 | Cc1ccc2c(c1)nc(SCCCC(=O)O)n2Cc1csc2ccccc12 [compound 128] |  |
| 10 to 100 | Cc1cc2nc(SCCCC(=O)O)n(Cc3cn(C)c4ccccc34)c2cc1C [compound 182] |  |
| 10 to 100 | Cc1cc2nc(SCCCC(=O)O)n(Cc3cn(C)c4cccc(C)c34)c2cc1C [compound 187] |  |
| 10 to 100 | Cc1cc2nc(SCCCC(=O)O)n(Cc3cn(C)c4cccc(Cl)c34)c2cc1C [compound 189] |  |
| 10 to 100 | Cc1cc2nc(SCCCC(=O)O)n(Cc3csc4ccccc34)c2cc1C [compound 200] |  |
| 10 to 100 | Cc1cc2nc(SCCCC(=O)O)n(Cc3csc4ccc(Cl)cc34)c2cc1C [compound 202] |  |
| 10 to 100 | Cc1ccc2scc(Cn3c(SCCCC(=O)O)nc4cc(C)c(C)cc43)c2c1 [compound 204] |  |
| 10 to 100 | Cc1cc2nc(SCCCC(=O)O)n(Cc3csc4cccc(C)c34)c2cc1C [compound 206] |  |
| 10 to 100 | COc1ccc2nc(SCCCC(=O)O)n(Cc3csc4ccc(C)cc34)c2c1 [compound 240] |  |
| 10 to 100 | COc1ccc2nc(SCCCC(=O)O)n(Cc3csc4cccc(C)c34)c2c1 [compound 242] |  |
|  | O=CNc1cnc(-c2ccccc2)n(CC(=O)NC(Cc2ccccc2)C(=O)C(=O)CCCOc2ccccn2)c1=O (stereo not shown) [formula (III-I)] | efficacy when orally administered to canine myocardial infarction models [4]: efficacious |
|  | COC(=O)c1ccc2oc(C(=O)C(Cc3ccccc3)NC(=O)Cn3c(-c4ccccc4OC)ncc(N)c3=O)nc2c1 (stereo not shown) [formula (IV-I)] | chymase inhibiting activity by oral administration to mouse allergy models (chymase): exhibit chymase inhibiting activity |
|  | CCOC(=O)[C@H](CCc1ccccc1)N[C@H]1CS[C@H](c2cccs2)CN(CC(=O)O)C1=O [temocapril hydrochloride] | suppression of cardiac hypertrophy [3]: no notable suppression; suppression of vasopressor effect (blood pressure) [3]: no notable suppression |
